Laboratory results reported in patent US20090233957A1, “(-)-BELOXEPIN AND METHODS FOR ITS SYNTHESIS AND USE” (priority 2008, published 2009).

Columns and labels:
[1] = target: T1, cloned human 5HT2C receptor (Homo sapiens, UniProt P28335); assay: 5HT2C receptor binding assay, [3H]mesulergine; conditions: CHO membranes
T1 construct: expressed in transfected cells; host or cells: CHO cells
T1 sequence (P28335 33-458): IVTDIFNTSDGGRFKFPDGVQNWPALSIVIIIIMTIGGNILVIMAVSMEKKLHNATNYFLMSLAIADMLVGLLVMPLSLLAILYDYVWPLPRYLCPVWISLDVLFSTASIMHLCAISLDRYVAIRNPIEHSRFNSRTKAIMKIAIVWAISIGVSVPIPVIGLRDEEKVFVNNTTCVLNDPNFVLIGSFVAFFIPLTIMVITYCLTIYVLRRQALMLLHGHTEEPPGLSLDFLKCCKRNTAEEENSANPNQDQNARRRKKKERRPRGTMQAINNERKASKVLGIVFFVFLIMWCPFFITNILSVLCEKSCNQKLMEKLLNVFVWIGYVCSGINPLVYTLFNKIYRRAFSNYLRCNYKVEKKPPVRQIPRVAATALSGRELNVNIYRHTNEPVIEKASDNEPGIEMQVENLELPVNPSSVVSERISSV
Description: For the 5HT2C receptor binding assay, [^3H]mesulergine (1.0 nM) was incubated for 60 min at 37° C. with membranes prepared from Chinese hamster ovary cells heterologously expressing the cloned human 5-HT2C receptor according to the method of Stam et al., 1994, Eur. J. Pharmacol. 269:339-348. Various concentrations of test compound were added and bound radioactivity was determined by scintillation counting. Non-specific binding was determined in the presence of 10 μM RS102221. The Ki value for the test compound was determined using standard methods.

[2] = tested on: L5 SNL rats; assay: L5 Single Nerve Ligation model of neuropathic pain, tactile allodynia (von Frey); format: in vivo, rat
Description: Protocol. The antiallodynic activity of (−)-beloxepin was tested in vivo using the L5—Single Nerve Ligation model of non-nociceptive neuropathic pain as described in LaBuda & Little, 2005, J. Neurosci. Methods 144:175-181. The test animals were placed in a Plexiglas chamber (10 cm×20 cm×25 cm) and habituated for 15 minutes. The chamber was positioned on top of a mesh screen so that von Frey monofilaments could be presented to the plantar surface of both hindpaws. Measurement of tactile sensitivity for each hind paw were obtained using the up/down method (Dixon, 1980, Annu. Rev. Pharmacol. Toxicol. 20:441-462) with seven Frey monofilaments (0.4, 1, 2, 4, 6, 8 and 15 grams). Each trial started with a von Frey force of 2 grams delivered to the right hind paw for approximately 1-2 seconds and then the left hind paw. If there was no withdrawal response, the next higher force was delivered. If there was a response, the next lower force was delivered. This procedure was performed until no response was made at the highest force (15 grams) or until four stimuli were administered following the initial response. The 50% paw withdrawal threshold for each paw was calculated using the following formula: [Xth]log=[vFr]log+ky, where [vFr] is the force of the last von Frey used, k=0.2249 which is the average interval (in log units) between the von Frey monofilaments, and y is a value that depends upon the pattern of withdrawal responses (Dixon, 1980, supra). […] Testing for tactile sensitivity was performed twice and the mean 50% withdrawal value assigned as the tactile sensitivity for the right and left paws for each animal.
Results. The antiallodynic effects produced by (−)-beloxepin (30 mg/kg IP) and (+)-beloxepin (30 mg/kg IP) in L5 SNL rats 8 days post surgery are illustrated in FIG. 1. In this experiment, at 8 days post surgery, rats were treated with vehicle or beloxepin enantiomers (30 mg/kg IP) and tested for tactile allodynia at 30 min post treatment. […] No side effects were observed following treatment with either enantiomer.
The antiallodynic effects produced by (−)-beloxepin (30 mg/kg IP) in L5 SNL rats 14 days post surgery are illustrated in FIG. 2. In this experiment, at 14 days post surgery, rats were treated with vehicle or (−)-beloxepin and tested for tactile allodynia at 30, 60, 120 and 240 min post treatment. Vehicle treated rats were tested at 30 min post treatment.
Protocol. A time course experiment was performed with (−)-beloxepin (60 mg/kg PO) in L5 SNL rats at 7 days post-surgery. Rats were tested at 30, 60, 120, and 240 minutes post-drug.
Protocol. A time course experiment was also performed with (+)-beloxepin (60 mg/kg PO) in L5 SNL rats at 14 days post-surgery. Rats were tested at 30, 60, 120, and 240 minutes post-drug.

[3] = tested on: rat 50° C. hot plate model; assay: rat 50° C. hot plate assay; format: in vivo
Description: Protocol. Rats were treated with vehicle, 30 mg/kg IP of (−)-beloxepin, or 30 mg/kg IP of (+)-beloxepin and then were placed on a hot plate (50° C.) 30, 60, or 120 minutes after administration of the vehicle or beloxepin enantiomer. Rats treated with 3 mg/kg SC of morphine and tested 30 min post-treatment were used as a positive control in these experiments.

[4] = tested on: rat hindpaw incision model; assay: rat hindpaw incisional pain model, tactile allodynia; format: in vivo; conditions: 30 mg/kg IP, 24 hours post-surgery
Description: Protocol. A time course experiment was also performed with (−)-beloxepin in the hindpaw incision model. At 24 hours post-surgery, rats received vehicle or (−)-beloxepin (30 mg/kg IP). Rats were tested for tactile allodynia at 30, 60, 120 and 240 minutes after administration of (−)-beloxepin.
Protocol. Another time course experiment was performed with (+)-beloxepin in the hindpaw incision model. At 24 hours post-surgery, rats received vehicle or (+)-beloxepin (30 mg/kg IP). Rats were tested for tactile allodynia at 30, 60, 120 and 240 minutes after administration of (+)-beloxepin.

## Cc1cccc2c1Oc1ccccc1C1(O)CCN(C)CC21 (single isomer, unassigned; (+)) [(+)-beloxepin]
[1]
  Ki: 84 nM
[2]; 30 mg/kg IP, 8 days post surgery, 30 min post treatment
  antiallodynic effect: not statistically significant
[2]; 60 mg/kg PO, 14 days post-surgery, tested 30, 60, 120, 240 min
  antiallodynic effect: did not produce significant antiallodynic effects at any time point
[3]; 30 mg/kg IP, 30, 60, 120 min
  antinociceptive activity: no antinociception was observed
[3]; 30 mg/kg IP, 30, 60 or 120 min
  % MPE values (range): 10-17%
[4]; 30 minute time point
  maximum hindpaw withdrawal threshold: ~28 grams
[4]; tested 30, 60, 120, 240 min
  antiallodynic effect: significant antiallodynic effect at the 30 and 60 minute time points
